US12410174B1, “Small molecular inhibitors of sting signaling compositions and methods of use” (TYERELL IMMUNOTHERAPEUTICS INC, priority 2020, dated 2025)
“Also recorded” adds a separate entry of the source.

Key:
[1] = test system: TREX1-deficient mice; assay: Treatment of TREX1 knockout (TKO) mice: survival and heart histopathology; format: in vivo, mouse
Protocol: Example 12: Mouse Treatment: Trex1 Hetero knockout mice (Trex1^+/−) were generated by crossing the hetero mice. Mouse genotypes from tail biopsies were determined using Real Time PCR with specific probes designed for each gene by commercial vendor (Transnetyx). Trex1 KO (TKO) mice (4-5 weeks old) were intraperitoneally injected with 25 μg Z811 per mouse in 200 μL 1% DMSO in PBS. The mice were injected three times a week for 5 months. The survival rates were evaluated.
Example 13: Histopathology. Mice are sacrificed and the heart tissues were fixed in 10% formalin for 48 hours.

[2] = test system: TREX1-deficient macrophages; assay: qPCR of Cxcl10 in TREX1 knockout (TKO) bone marrow derived macrophages; format: cell-based, mouse; settings: TKO BMDM, compared to DMSO control
Protocol: MEFs were obtained from E13.5 embryos by a standard procedure. Bone Marrow Derived Macro-phages (BMDM) were isolated from hind-limb femurs of 8-10 weeks old WT and Trex1 KO (TKO) mice. The hematopoietic cells from the bone marrow were cultured in complete DMEM (Invitrogen) including 10 ng/ml of Mouse Recombinant Colony-Stimulating Factor (M-CSF, R&D Systems) for 10 to 14 days.
(§1) Example 11: qPCR total RNA were reverse-transcribed using M-MLV Reverse Transcriptase (Promega). Real-time PCR was performed using Taqman Gene Expression Assay (Applied Biosystems) for innate immune genes and inflammatory cytokines.

[3] = test system: STING signaling; assay: qPCR of IFNβ1 / Cxcl10 in normal hTERT cells after ISD transfection; format: cell-based, human
Protocol: as §1

[4] = test system: STING signaling; assay: IFNβ ELISA in MEF cells after ISD treatment; format: cell-based, murine
Protocol: Example 9: Interferon β Elisa analysis: Interferon β Elisa was performed using either the IFNβ human ELISA Kit from Invitrogen or the Human IFNβ ELISA Kit from PBL Interferon Source following the manufacturer's protocol.

[5] = test system: STING signaling; assay: Luciferase live cell assay, type I IFN promoter in hTERT-pIFNβ-Glu cells after ISD transfection; format: cell-based, human; settings: hTERT-pIFNβ-Glu cells
Protocol: Inhibition of IFNβ expression was measured by Luciferase induction at 24 hours after transfection of ISD, Mock is shown (210), ISD treatment only (220) was used as a control, according to an embodiment of the invention;
Example 1: Identification of small molecule antagonists of STING. In the presence of cytosolic DNA species, STING becomes activated to drive the transcription of cytokines such as type I IFN. Compounds binding to STING via TSA were subsequently examined for their ability to prevent cytosolic DNA species from activating the type I interferon (IFN) promoter, using a live cell assay. This assay comprised immortalized human fibroblasts that were stably transfected with the type I IFN promoter driving luciferase as well as the CMV promoter driving SEAP (hTERT-pIFNβ-Glu). The live cell assay has previously been disclosed in PCT/JS2019/025380 entitled IFN-βETA REPORTER SYSTEM FOR IMMORTALIZED PRIMARY CELLS inventor Glen N. Barber, which was filed Apr. 2, 2018 and published as WO2019195285, and which is herein incorporated by reference in its entirety and for all purposes. The ability of the small molecules to prevent activation of the type I IFN promoter and the transcription of luciferase, but not SEAP in response to cytosolic DNA species was assessed. The activation of STING, typically by CDNs, in turn activates the transcription factors NF-κB and IRF3, both of which are required to induce the transcriptional stimulation of the Type I IFN promoter, but not the CMV promoter as IRF3 and NF-kB transcription factor binding sites are not contained in the CMV promoter. The assay identified the small molecule Compound Y1 in the first screen (HTS), where the level of luciferase was not able to activate the type I IFN promoter or induce the expression of luciferase (see Table I).
Example 4: hTERT-BJ1 Telomerase Fibroblasts (hTERT) were originally purchased from Clontech and were cultured in 4:1 ratio of DMEM:Medium 199 supplement with 10% FBS, 4 mM L-Glutamine and 1 mM sodium pyruvate at 37° C. in a 5% CO2-humidified atmosphere. hTERT-BJ1 Telomerase Fibroblasts stably expressing the luciferase gene under the control of the interferon-beta promoter and SEAP gene under control of the CMV promoter) (hTERT-pIFNβ-Glu) were generated by the Barber laboratory.
Example 7: Luciferase assay: hTERT-BJ1 Telomerase Fibroblasts stably expressing the luciferase gene under the control of the interferon-beta promoter and SEAP gene under control of the CMV promoter) (hTERT-pIFNβ-Glu) were generated by the Barber laboratory. Luciferase assay was performed using Secrete-Pair Dual Luminescence Assay Kit from GeneCopoeia following the manufacturer's protocol.

[6] = test system: STING signaling; assay: Western blot of STING, pTBK1 and pIRF3 in hTERT cells after ISD transfection; format: cell-based, human; settings: 6 hours after ISD transfection
Protocol: (§2) Example 8: Immunoblot analysis: Equal amounts of proteins were resolved on sodium dodecyl sulfate (SDS)-Polyacrylamide gels and then transferred to polyvinylidene fluoride (PVDF) membranes (Millipore). After blocking with 5% Blocking Reagent, membranes were incubated with various primary antibodies (and appropriate secondary antibodies). The image was resolved using an enhanced chemiluminescence system ECL (Thermo Scientific) and detected by autoradiography (Kodak). Antibodies: rabbit polyclonal antibody against STING was developed in our laboratory as described previously in Ishikawa et al, 2008; other antibodies were obtained from following sources: β-actin (Sigma Aldrich), p-IRF3 (Cell Signaling), IRF3 (Santa Cruz Biotechnology), p-p65 (Cell Signaling), p65 (Cell Signaling), p-TBK1 (Cell Signaling), TBK1 (Abcam), cGAS (Cell Signaling).

[7] = test system: STING signaling; assay: Confocal analysis of STING trafficking and IRF3 translocation in hTERT cells; format: cell-based, human; settings: 6 hours after ISD transfection
Protocol: FIG. 2E are photographs showing confocal analysis of STING trafficking using anti-Sting performed at 6 hours after ISD transfection with Y1+220/without 220, Mock is shown (210), ISD treatment only (220) was used as control, treatment same as in FIG. 2A, according to an embodiment of the invention;
Example 10: Immunofluorescence Microscopy: Cells were cultured and treated in their appropriate media on Lab-Tek II chamber slides. Cell were fixed with 4% paraformaldehyde for 15 minutes in at 37° C. and permeabilized with 0.05% Triton X-100 for 5 minutes at room temperature. Immunostaining was performed with rabbit-anti-STING polyclonal, rabbit-anti-IRF3 (Santa Cruz Biotechnology) or rabbit-anti-p65 (Cell Signaling) followed by fluorescence conjugated secondary antibodies (FITC-goat-anti-rabbit) (Invitrogen).

[8] = test system: STING signaling; assay: Western blot of STING, TBK1 and IRF3 phosphorylation in MEF cells; format: cell-based, murine; settings: cytosolic DNA
Protocol: as §2

## N#Cc1c(NC(=O)c2ccccc2Cl)n(Cc2ccccc2)c2nc3ccccc3nc12 [Compound Y1, N-{1-benzyl-3-cyano-1H-pyrrolo[2,3-ß]quinoxalin-2-yl}-2-chlorobenzamide]
[1]
  inflammation in the heart (H&E staining): Less inflammation in the heart
[1]; intraperitoneal, 25 μg/mouse, 5 months, compared to mock treated
  survival of TREX1-deficient mice: survival was significantly improved over several months; also recorded: extended the life of TREX1-deficient mice
[2]
  Cxcl10 expression / cytokine production in TREX1-deficient macrophages (qPCR): can repress cytokine production in TREX1-defective cells; also recorded: dramatically decreased; also recorded: inhibits TREX1 dependent Cxcl10 expression
[3]; normal hTERT cells stimulated with ISD, 50 μM, 25 μM or 5 μM
  production of STING-inducible cytokine Cxcl10 (qPCR): robustly inhibited
[3]; normal hTERT cells, 6 hours after ISD transfection
  IFNβ expression (qPCR of IFNβ1): dramatically decreased IFNβ expression and production
[4]
  IFNβ production (ELISA): reproducibly decreased the production of IFNβ; also recorded: dramatically decreased
[5]; 10 μM and 50 μM, ISD 3 μg/ml, 24 hours after transfection
  inhibition of activation of the type I IFN promoter (luciferase induction): inhibited activation of the type I IFN promoter; also recorded: exhibited inhibition of the activation of the type I IFN promoter
[5]; 50 μM or 25 μM, in response to ISD
  inhibitory activity of the type I IFN promoter (luciferase induction): showed robust inhibitory activity of the type I IFN promoter
[6]
  STING, TBK1 and IRF3 phosphorylation (Western blot): robustly prevented STING phosphorylation and subsequently TBK1 and IRF3 phosphorylation; also recorded: able to prevent the phosphorylation of STING, TBK1 and IRF3
[7]
  IRF3 translocation (confocal analysis): able to prevent
  STING trafficking (confocal analysis): effectively preventing STING trafficking; also recorded: able to prevent
[8]
  phosphorylation of TBK1, IRF3 and STING (Western blot): prevented the phosphorylation of either TBK1 or IRF3
